How the values were obtained:
Experiment in all cases: radiometric filter-binding kinase assay, Kinase HotSpot
[1] = molecular target: CSNK1G3 (human) (UniProt Q9Y6M4); conditions: compound 0.5 µM; ATP 10 µM
[2] = molecular target: WEE1 (human) (UniProt P30291); conditions: compound 0.5 µM; ATP 10 µM
[3] = molecular target: CAMKK2 (human) (UniProt Q96RR4); conditions: compound 0.5 µM; ATP 10 µM
[4] = molecular target: KDR (human) (UniProt P35968); conditions: compound 0.5 µM; ATP 10 µM
[5] = molecular target: STK17A (human) (UniProt Q9UEE5); conditions: compound 0.5 µM; ATP 10 µM
[6] = molecular target: PTK6 (human) (UniProt Q13882); conditions: compound 0.5 µM; ATP 10 µM
[7] = molecular target: CDK9 CCNK (human) (UniProt O75909+P50750); conditions: compound 0.5 µM
[8] = molecular target: STK39 (human) (UniProt Q9UEW8); conditions: compound 0.5 µM
[9] = molecular target: GSK3A (human) (UniProt P49840); conditions: compound 0.5 µM; ATP 10 µM
[10] = molecular target: MAPKAPK2 (human) (UniProt P49137); conditions: compound 0.5 µM; ATP 10 µM
[11] = molecular target: ROS1 (human) (UniProt P08922); conditions: compound 0.5 µM; ATP 10 µM
[12] = molecular target: DCLK2 (human) (UniProt Q8N568); conditions: compound 0.5 µM; ATP 10 µM
[13] = molecular target: PKN2 (human) (UniProt Q16513); conditions: compound 0.5 µM; ATP 10 µM
[14] = molecular target: CLK3 (human) (UniProt P49761); conditions: compound 0.5 µM; ATP 10 µM
[15] = molecular target: EPHA1 (human) (UniProt P21709); conditions: compound 0.5 µM; ATP 10 µM
[16] = molecular target: DYRK1B (human) (UniProt Q9Y463); conditions: compound 0.5 µM; ATP 10 µM
[17] = molecular target: PRKCH (human) (UniProt P24723); conditions: compound 0.5 µM; ATP 10 µM
[18] = molecular target: HIPK4 (human) (UniProt Q8NE63); conditions: compound 0.5 µM; ATP 10 µM
[19] = molecular target: FLT1 (human) (UniProt P17948); conditions: compound 0.5 µM; ATP 10 µM
[20] = molecular target: ACVRL1 (human) (UniProt P37023); conditions: compound 0.5 µM; ATP 10 µM
[21] = molecular target: CHUK (human) (UniProt O15111); conditions: compound 0.5 µM; ATP 10 µM
[22] = molecular target: RPS6KA2 KD1 KD2 (human) (UniProt Q15349); conditions: compound 0.5 µM; ATP 10 µM
[23] = molecular target: CDK6 CCND3 (human) (UniProt P30281+Q00534); conditions: compound 0.5 µM
[24] = molecular target: TSSK1B (human) (UniProt Q9BXA7); conditions: compound 0.5 µM; ATP 10 µM
[25] = molecular target: JAK1 JH1 catalytic (human) (UniProt P23458); conditions: compound 0.5 µM; ATP 10 µM
[26] = molecular target: NEK2 (human) (UniProt P51955); conditions: compound 0.5 µM; ATP 10 µM
[27] = molecular target: MAP2K2 (human) (UniProt P36507); conditions: compound 0.5 µM; ATP 10 µM
[28] = molecular target: PTK2B (human) (UniProt Q14289); conditions: compound 0.5 µM; ATP 10 µM
[29] = molecular target: PRKCB1 (human) (UniProt P05771); conditions: compound 0.5 µM; ATP 10 µM
[30] = molecular target: TEC (human) (UniProt P42680); conditions: compound 0.5 µM; ATP 10 µM
[31] = molecular target: MAPK1 (human) (UniProt P28482); conditions: compound 0.5 µM; ATP 10 µM
[32] = molecular target: CSNK2A2 (human) (UniProt P19784); conditions: compound 0.5 µM; ATP 10 µM
[33] = molecular target: RPS6KA5 KD2 (human) (UniProt O75582); conditions: compound 0.5 µM; ATP 10 µM
[34] = molecular target: DYRK4 (human) (UniProt Q9NR20); conditions: compound 0.5 µM; ATP 10 µM
[35] = molecular target: CSK (human) (UniProt P41240); conditions: compound 0.5 µM; ATP 10 µM
[36] = molecular target: MELK (human) (UniProt Q14680); conditions: compound 0.5 µM; ATP 10 µM
[37] = molecular target: STK25 (human) (UniProt O00506); conditions: compound 0.5 µM; ATP 10 µM
[38] = molecular target: NEK1 (human) (UniProt Q96PY6); conditions: compound 0.5 µM; ATP 10 µM
[39] = molecular target: KIT (human) (UniProt P10721); conditions: compound 0.5 µM; ATP 10 µM
[40] = molecular target: TGFBR1 (human) (UniProt P36897); conditions: compound 0.5 µM; ATP 10 µM
[41] = molecular target: AURKC (human) (UniProt Q9UQB9); conditions: compound 0.5 µM; ATP 10 µM
[42] = molecular target: DYRK1A (human) (UniProt Q13627); conditions: compound 0.5 µM; ATP 10 µM

Chain of NEK1 (human) (Q96PY6 whole entry, looked up): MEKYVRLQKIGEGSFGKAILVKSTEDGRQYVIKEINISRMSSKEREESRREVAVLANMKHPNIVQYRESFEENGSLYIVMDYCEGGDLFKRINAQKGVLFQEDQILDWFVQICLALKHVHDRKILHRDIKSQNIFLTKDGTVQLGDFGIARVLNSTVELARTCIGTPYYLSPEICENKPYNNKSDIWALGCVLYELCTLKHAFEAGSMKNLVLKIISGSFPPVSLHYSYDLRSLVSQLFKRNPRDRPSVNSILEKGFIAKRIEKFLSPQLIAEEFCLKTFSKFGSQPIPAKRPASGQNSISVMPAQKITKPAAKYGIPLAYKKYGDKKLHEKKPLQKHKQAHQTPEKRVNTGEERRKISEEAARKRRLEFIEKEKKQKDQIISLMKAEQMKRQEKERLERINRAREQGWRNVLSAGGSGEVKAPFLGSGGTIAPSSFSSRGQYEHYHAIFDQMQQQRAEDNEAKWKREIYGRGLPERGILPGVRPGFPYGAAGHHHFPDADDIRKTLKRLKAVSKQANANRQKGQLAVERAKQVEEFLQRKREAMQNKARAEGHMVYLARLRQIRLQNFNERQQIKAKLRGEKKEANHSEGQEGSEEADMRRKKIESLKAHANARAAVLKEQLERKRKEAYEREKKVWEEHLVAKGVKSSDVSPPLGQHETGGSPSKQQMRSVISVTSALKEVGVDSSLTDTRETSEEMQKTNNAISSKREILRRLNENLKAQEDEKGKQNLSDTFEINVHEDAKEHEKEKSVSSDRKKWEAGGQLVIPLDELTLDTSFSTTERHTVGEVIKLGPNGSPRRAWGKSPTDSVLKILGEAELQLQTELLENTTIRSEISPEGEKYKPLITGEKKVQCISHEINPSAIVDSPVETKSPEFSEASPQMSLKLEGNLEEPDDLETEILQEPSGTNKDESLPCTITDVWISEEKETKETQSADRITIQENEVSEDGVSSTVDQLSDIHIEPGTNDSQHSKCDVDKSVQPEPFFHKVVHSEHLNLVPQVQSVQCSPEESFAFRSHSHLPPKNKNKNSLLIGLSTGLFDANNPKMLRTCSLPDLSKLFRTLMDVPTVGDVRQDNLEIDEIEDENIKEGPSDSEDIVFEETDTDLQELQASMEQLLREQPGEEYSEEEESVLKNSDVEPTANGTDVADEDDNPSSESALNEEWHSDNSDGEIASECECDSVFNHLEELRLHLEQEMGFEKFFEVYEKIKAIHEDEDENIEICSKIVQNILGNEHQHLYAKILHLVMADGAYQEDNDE
Chain of TEC (human) (P42680 whole entry, looked up): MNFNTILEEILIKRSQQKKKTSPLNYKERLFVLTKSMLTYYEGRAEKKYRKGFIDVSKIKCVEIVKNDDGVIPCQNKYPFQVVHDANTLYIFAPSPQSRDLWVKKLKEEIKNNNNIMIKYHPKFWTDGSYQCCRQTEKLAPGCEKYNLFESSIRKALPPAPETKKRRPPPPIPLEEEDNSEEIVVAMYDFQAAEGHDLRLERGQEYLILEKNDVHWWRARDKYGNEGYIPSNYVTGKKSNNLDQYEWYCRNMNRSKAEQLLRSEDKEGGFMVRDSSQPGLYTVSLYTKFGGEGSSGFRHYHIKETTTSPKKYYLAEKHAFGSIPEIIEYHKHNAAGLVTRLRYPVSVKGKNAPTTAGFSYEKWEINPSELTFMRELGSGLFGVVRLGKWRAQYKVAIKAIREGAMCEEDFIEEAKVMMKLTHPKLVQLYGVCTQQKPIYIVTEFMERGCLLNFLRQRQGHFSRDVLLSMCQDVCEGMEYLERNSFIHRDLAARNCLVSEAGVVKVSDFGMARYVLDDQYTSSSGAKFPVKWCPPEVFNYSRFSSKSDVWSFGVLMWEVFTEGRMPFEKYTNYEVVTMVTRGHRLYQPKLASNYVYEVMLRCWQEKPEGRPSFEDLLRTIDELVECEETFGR
Chain of STK17A (human) (Q9UEE5 whole entry, looked up): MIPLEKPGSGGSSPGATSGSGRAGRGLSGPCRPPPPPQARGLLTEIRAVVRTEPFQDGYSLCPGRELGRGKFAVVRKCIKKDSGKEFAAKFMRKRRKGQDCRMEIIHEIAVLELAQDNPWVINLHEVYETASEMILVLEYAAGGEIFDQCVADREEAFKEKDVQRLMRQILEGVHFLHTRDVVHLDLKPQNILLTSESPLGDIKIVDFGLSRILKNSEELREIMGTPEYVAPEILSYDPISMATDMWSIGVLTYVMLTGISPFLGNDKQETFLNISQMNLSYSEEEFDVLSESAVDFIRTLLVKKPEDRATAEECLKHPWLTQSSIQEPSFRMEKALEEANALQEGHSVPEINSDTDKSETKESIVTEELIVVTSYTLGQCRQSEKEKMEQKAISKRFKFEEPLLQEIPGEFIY
Chain of AURKC (human) (Q9UQB9 whole entry, looked up): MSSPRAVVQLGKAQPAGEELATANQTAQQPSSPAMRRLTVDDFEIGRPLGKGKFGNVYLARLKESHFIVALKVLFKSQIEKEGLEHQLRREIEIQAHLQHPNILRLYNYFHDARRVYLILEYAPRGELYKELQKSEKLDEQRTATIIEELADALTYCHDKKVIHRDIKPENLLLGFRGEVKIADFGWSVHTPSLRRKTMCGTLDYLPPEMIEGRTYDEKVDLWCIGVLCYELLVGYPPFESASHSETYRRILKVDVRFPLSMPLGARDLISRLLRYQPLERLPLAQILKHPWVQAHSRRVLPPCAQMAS
Chain of CHUK (human) (O15111 whole entry, looked up): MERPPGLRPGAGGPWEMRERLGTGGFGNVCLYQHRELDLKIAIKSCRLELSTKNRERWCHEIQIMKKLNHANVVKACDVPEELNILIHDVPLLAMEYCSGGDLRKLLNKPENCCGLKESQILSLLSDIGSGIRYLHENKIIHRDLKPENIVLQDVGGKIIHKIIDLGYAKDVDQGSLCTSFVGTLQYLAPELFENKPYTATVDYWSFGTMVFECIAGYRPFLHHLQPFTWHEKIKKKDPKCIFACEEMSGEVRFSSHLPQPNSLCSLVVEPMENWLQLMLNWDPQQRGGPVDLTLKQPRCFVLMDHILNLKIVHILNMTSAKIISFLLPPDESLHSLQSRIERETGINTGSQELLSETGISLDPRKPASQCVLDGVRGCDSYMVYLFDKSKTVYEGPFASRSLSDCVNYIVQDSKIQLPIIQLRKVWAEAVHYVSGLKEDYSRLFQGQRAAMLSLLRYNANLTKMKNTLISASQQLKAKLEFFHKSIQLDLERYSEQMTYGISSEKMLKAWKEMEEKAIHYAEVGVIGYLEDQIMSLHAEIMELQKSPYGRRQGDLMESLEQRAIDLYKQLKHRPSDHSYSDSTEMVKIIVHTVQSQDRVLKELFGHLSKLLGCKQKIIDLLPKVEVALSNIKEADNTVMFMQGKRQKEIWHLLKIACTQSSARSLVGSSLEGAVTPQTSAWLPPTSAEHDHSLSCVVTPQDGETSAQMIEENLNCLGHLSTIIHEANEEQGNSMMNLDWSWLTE
Chain of MELK (human) (Q14680 whole entry, looked up): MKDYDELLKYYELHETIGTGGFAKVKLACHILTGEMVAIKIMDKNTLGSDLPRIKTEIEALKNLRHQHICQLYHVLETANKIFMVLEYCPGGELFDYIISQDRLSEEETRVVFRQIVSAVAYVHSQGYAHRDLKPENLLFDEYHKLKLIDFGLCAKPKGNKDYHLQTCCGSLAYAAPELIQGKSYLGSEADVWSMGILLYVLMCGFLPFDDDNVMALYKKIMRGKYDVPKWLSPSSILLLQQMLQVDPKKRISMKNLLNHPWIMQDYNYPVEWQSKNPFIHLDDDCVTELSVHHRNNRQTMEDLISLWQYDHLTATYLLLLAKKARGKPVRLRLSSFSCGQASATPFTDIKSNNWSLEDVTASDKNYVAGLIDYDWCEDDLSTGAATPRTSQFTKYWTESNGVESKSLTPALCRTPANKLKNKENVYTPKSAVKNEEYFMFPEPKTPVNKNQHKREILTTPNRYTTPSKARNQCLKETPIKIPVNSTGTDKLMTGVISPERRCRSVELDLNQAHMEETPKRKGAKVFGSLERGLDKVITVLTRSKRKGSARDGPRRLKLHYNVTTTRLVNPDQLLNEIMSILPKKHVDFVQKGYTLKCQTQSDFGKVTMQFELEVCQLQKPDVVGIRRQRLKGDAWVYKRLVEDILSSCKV
Chain of CAMKK2 (human) (Q96RR4 whole entry, looked up): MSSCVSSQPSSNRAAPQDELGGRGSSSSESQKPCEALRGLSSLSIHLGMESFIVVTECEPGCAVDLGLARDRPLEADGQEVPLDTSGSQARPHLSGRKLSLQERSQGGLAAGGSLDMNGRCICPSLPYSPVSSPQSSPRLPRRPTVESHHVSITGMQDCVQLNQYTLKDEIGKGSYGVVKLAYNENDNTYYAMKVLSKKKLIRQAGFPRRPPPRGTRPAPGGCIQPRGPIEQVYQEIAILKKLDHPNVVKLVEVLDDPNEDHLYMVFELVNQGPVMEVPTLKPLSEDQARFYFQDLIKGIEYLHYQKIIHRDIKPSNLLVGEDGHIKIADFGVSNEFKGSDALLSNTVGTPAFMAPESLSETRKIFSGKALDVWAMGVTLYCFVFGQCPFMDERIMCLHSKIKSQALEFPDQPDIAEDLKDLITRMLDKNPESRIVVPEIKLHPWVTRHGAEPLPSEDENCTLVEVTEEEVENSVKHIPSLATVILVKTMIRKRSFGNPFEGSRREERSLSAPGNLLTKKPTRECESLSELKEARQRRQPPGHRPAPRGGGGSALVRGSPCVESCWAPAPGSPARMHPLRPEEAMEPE
Chain of TSSK1B (human) (Q9BXA7 whole entry, looked up): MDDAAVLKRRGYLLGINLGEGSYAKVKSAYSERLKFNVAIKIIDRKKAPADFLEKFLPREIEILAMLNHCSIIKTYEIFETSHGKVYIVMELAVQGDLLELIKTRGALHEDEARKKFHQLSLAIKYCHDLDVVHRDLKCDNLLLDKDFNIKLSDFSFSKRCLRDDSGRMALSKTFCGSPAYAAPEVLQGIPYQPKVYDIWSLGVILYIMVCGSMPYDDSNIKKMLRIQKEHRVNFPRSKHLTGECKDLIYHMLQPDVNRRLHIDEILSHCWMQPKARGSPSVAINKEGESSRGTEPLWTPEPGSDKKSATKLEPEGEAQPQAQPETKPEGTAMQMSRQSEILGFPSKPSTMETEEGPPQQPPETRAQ

With `O=C1NC(=O)c2c1c1c3ccccc3[nH]c1c1[nH]c3cc(Br)ccc3c21` the residual activity [1] was 94.6%, the residual activity [2] was 74.6% and the residual activity [3] was 48.1%. The residual activity [4] was 67.9%, the residual activity [5] was 29.5% and the residual activity [6] was 92.7%. It also gave a residual activity ([7]; ATP 10 µM) of 82.7%, a residual activity ([8]; ATP 10 µM) of 90.7% and a residual activity [9] of 33.9%. It also gave a residual activity [10] of 101%, a residual activity [11] of 74.4% and a residual activity [12] of 87.2%. It also gave a residual activity [13] of 88.7%, a residual activity [14] of 93.4% and a residual activity [15] of 98.1%. The residual activity [16] was 82.8%, the residual activity [17] was 100% and the residual activity [18] was 94.1%. It also gave a residual activity [19] of 56.5%, a residual activity [20] of 109% and a residual activity [21] of 81.5%. It also gave a residual activity [22] of 37.9%, a residual activity ([23]; ATP 10 µM) of 40.2% and a residual activity [24] of 86.5%. The residual activity [25] was 110%, the residual activity [26] was 92% and the residual activity [27] was 105%. For the same molecule, the residual activity [28] was 79.5%, the residual activity [29] was 78.6% and the residual activity [30] was 105%. For the same molecule, the residual activity [31] was 92.4%, the residual activity [32] was 93.2% and the residual activity [33] was 76.1%. It also gave a residual activity [34] of 86%, a residual activity [35] of 100% and a residual activity [36] of 46.6%. For the same molecule, the residual activity [37] was 84.4%, the residual activity [38] was 89.1% and the residual activity [39] was 128%. For the same molecule, the residual activity [40] was 96.9%, the residual activity [41] was 51.9% and the residual activity [42] was 84%.
Work on `N#Cc1c(NC(=O)c2cccc3ccccc23)sc2c1CCCC2` yielded a residual activity [1] of 104%, a residual activity [2] of 88.9% and a residual activity [3] of 80.4%. For the same molecule, the residual activity [4] was 100%, the residual activity [5] was 104% and the residual activity [6] was 89.8%. The residual activity ([7]; ATP 10 µM) was 90.5%, the residual activity ([8]; ATP 10 µM) was 94.6% and the residual activity [9] was 97.2%. The residual activity [10] was 103%, the residual activity [11] was 96.8% and the residual activity [12] was 96.5%. The residual activity [13] was 103%, the residual activity [14] was 99.3% and the residual activity [15] was 103%. The residual activity [16] was 101%, the residual activity [17] was 97.9% and the residual activity [18] was 110%. It also gave a residual activity [19] of 84.4%, a residual activity [20] of 107% and a residual activity [21] of 99.6%. It also gave a residual activity [22] of 95.3%, a residual activity ([23]; ATP 10 µM) of 99% and a residual activity [24] of 94.9%. For the same molecule, the residual activity [25] was 108%, the residual activity [26] was 88.1% and the residual activity [27] was 106%. It also gave a residual activity [28] of 108%, a residual activity [29] of 90.9% and a residual activity [30] of 111%. For the same molecule, the residual activity [31] was 87.5%, the residual activity [32] was 92.2% and the residual activity [33] was 99.6%. It also gave a residual activity [34] of 98.1%, a residual activity [35] of 91.5% and a residual activity [36] of 83.3%. It also gave a residual activity [37] of 95.7%, a residual activity [38] of 93.4% and a residual activity [39] of 84.2%. It also gave a residual activity [40] of 101%, a residual activity [41] of 95% and a residual activity [42] of 96.7%.
`O=c1[nH]c2ccccc2n1C1CCN(Cc2ccc(-c3nc4cc5[nH]cnc5cc4nc3-c3ccccc3)cc2)CC1` showed a residual activity [1] of 96.5%, a residual activity [2] of 93.9% and a residual activity [3] of 112%. It also gave a residual activity [4] of 90.9%, a residual activity [5] of 98.2% and a residual activity [6] of 91.1%. For the same molecule, the residual activity [7] was 108%, the residual activity [8] was 98.2% and the residual activity [9] was 100%. For the same molecule, the residual activity [10] was 98.7%, the residual activity [11] was 101% and the residual activity [12] was 107%. It also gave a residual activity [13] of 73.2%, a residual activity [14] of 111% and a residual activity [15] of 84.4%. For the same molecule, the residual activity [16] was 97.9%, the residual activity [17] was 101% and the residual activity [18] was 99.3%. It also gave a residual activity [19] of 92.2%, a residual activity [20] of 105% and a residual activity [21] of 90.1%. It also gave a residual activity [22] of 101%, a residual activity [23] of 99.1% and a residual activity [24] of 96.5%. The residual activity [25] was 94.6%, the residual activity [26] was 96.8% and the residual activity [27] was 86.6%. For the same molecule, the residual activity [28] was 105%, the residual activity [29] was 108% and the residual activity [30] was 162%. It also gave a residual activity [31] of 112%, a residual activity [32] of 101% and a residual activity [33] of 103%. For the same molecule, the residual activity [34] was 109%, the residual activity [35] was 101% and the residual activity [36] was 110%. The residual activity [37] was 89.8%, the residual activity [38] was 101% and the residual activity [39] was 91.7%. The residual activity [40] was 102%, the residual activity [41] was 96% and the residual activity [42] was 101%.
For `N#C/C(=C1/Nc2ccccc2S1)c1ccnc(NCCc2cccnc2)n1`, the residual activity [1] was 87.1%, the residual activity [2] was 88.5% and the residual activity [3] was 80.4%. The residual activity [4] was 99.7%, the residual activity [5] was 94% and the residual activity [6] was 46.5%. For the same molecule, the residual activity ([7]; ATP 10 µM) was 26.6%, the residual activity ([8]; ATP 10 µM) was 96.9% and the residual activity [9] was 2.42%. For the same molecule, the residual activity [10] was 97.8%, the residual activity [11] was 92.7% and the residual activity [12] was 96%. It also gave a residual activity [13] of 99.3%, a residual activity [14] of 88.5% and a residual activity [15] of 95.5%. For the same molecule, the residual activity [16] was 53.2%, the residual activity [17] was 98.7% and the residual activity [18] was 97.6%. It also gave a residual activity [19] of 74%, a residual activity [20] of 102% and a residual activity [21] of 88.6%. It also gave a residual activity [22] of 89.6%, a residual activity ([23]; ATP 10 µM) of 94.6% and a residual activity [24] of 99%. It also gave a residual activity [25] of 113%, a residual activity [26] of 87.8% and a residual activity [27] of 76.2%. For the same molecule, the residual activity [28] was 98.7%, the residual activity [29] was 90.8% and the residual activity [30] was 104%. It also gave a residual activity [31] of 93.5%, a residual activity [32] of 27.1% and a residual activity [33] of 98.9%. It also gave a residual activity [34] of 65%, a residual activity [35] of 93.4% and a residual activity [36] of 91.7%. For the same molecule, the residual activity [37] was 97.7%, the residual activity [38] was 70% and the residual activity [39] was 93.6%. For the same molecule, the residual activity [40] was 97.8%, the residual activity [41] was 96% and the residual activity [42] was 52.7%.
